According to patent US9963463B2, “Urea-substituted indanes as P38 map kinase inhibitors” (TORRENT PHARMACEUTICALS LIMITED, priority 2014, dated 2018):

What was measured:
[1] = molecular target: T1, purified recombinant human p38 alpha MAPK (Homo sapiens, UniProt Q16539); experiment: Inhibition of p38 alpha MAPK activity, TR-FRET kinase assay; assay type: biochemical; settings: Concentration 1 μM; read-out: P38α Inhibition
T1 construct: purchased Millipore, USA
How it was run: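 Recombinant human p38α preincubated 15 min at RT with compound (0.5–1.0% DMSO), then 30 nM biotinylated GST-ATF2 and 100 μM ATP added for 60 min at RT. Stopped with EDTA; Eu-anti-phospho-ATF2 and APC-streptavidin detection, 60 min. % inhibition from 665/615 nm TR-FRET ratio.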

[2] = test system: cigarette smoke induced Neutrophil accumulation in BAL Fluid; experiment: Acute mouse model of airway inflammation (tobacco smoke), BAL neutrophils; assay type: in vivo; settings: mice, aerosol exposure 25 minutes; for Neutrophil (*10^3 cells/animal): BAL fluid, Mean ± SEM; for % Inhibition: neutrophil vs vehicle group
From the text: In vivo efficacy evaluation of compounds in animal model of airway inflammation: The tobacco smoke induced airway inflammation model is used for in-vivo efficacy of compound. Many investigators have used acute tobacco smoke (TS) exposure in rodents as models of airway inflammation for quick screening of anti-inflammatory therapies (J Pharmacol Exp Ther. 2008; 324(3):921-9; J Pharmacol Exp Ther. 2010; 332(3):764-75; Journal of Inflammation 2013, 10(Suppl 1):31 and Eur Respir J Suppl 2006; 663s:3850).
A: Efficacy Studies in Acute Mouse Model of Airway Inflammation
Mice were exposed to tobacco smoke (TS) in an acrylic chamber. Animals were exposed to TS from 8, 12, 16 cigarettes on day 1, day 2, day 3 respectively. From day 4 onwards till day 11, animals were exposed to TS from 20 cigarettes per day. Like human COPD associated inflammation, acute exposure of mice to TS induced significant inflammatory cell, predominantly neutrophil recruitment to lungs as compared to air exposed control mice (BALF neutrophil levels, nil in air control group vs 178±29.1*10^3 cells/animal in smoke exposed vehicle group).
Lung delivery of test compound was achieved by whole body aerosol exposure for 25 minutes in a chamber. Mice were divided in different dose groups and exposed in a chamber for 25 minutes with vehicle or Compound 12 (0.3 mg/ml) or Compound 12 (3 mg/ml). A total quantity of 3.5 ml of either vehicle or test compound formulation was nebulized in a chambers to respective groups over 25 mins period. Test compounds were administered 2 hr prior to TS exposure from day 6 to day 11. Bronchoalveolar lavage (BAL) was performed 24 hr post last TS exposure.
Trachea of animal was cannulated using catheter. Phosphate Buffer Saline (PBS) was used as lavage fluid. A volume of 0.5 ml was gently instilled and withdrawn and collected in microcentrifuge tube placed on ice. This procedure was repeated further 2 times.
Lavage fluid was separated from cells by centrifugation and supernatant separated. The cell pallet was resuspended in known volume of PBS. Cells in aliquot were stained using Turk solution and total cell numbers were calculated by counting Turk stained aliquot under microscope using haemocytometer.
The residual cell suspension was resuspended and slides prepared using cyto centrifuge technique (Cytospin 4, Thermo Shandon). The slides were then fixed with methanol, air dried and stained with May Grunwald Giemsa stain. Up to 300 cells were counted and differentiated using standard morphometric techniques under light microscopy.
All results are presented at individual data for each animal and mean value calculated for each group. Percentage inhibition for the neutrophil was calculated for Compound 12 treatment group against vehicle group. Results are summarized herein below: […]

[3] = test system: cigarette smoke induced inflammatory cell accumulation in BAL Fluid; experiment: Acute guinea pig model of airway inflammation (tobacco smoke), BAL neutrophils; assay type: in vivo, Guinea pigs; settings: acute TS model, 6 mg/ml, aerosol exposure 75 minutes
From the text: Observation: It was observed that compound of present invention was found effective in inhibition of neutophil influx, an index of pulmonary inflammation. […] B. (I) Efficacy Studies in Acute Guinea Pig Model of Airway Inflammation
Guinea pigs were exposed to tobacco smoke (TS) in an acrylic chamber. Animals were exposed to TS from 5, 10, 15 cigarettes on day 1, day 2, day 3 respectively. From day 4 onwards till day 11, animals were exposed to TS from 15 cigarettes per day. […]
Lung delivery of test compound was achieved by whole body aerosol exposure for 75 minutes in a chamber. […] A total quantity of 7.0 ml of either vehicle or test compound formulation (suspension formulation with D90<5μ, with Malvern Mastersizer®) was nebulized in chambers to respective groups over 75 mins period. […]
(§1) Lavage fluid was separated from cells by centrifugation and supernatant separated. […] Cells in aliquot were stained using Turk solution and total cell numbers were calculated by counting Turk stained aliquot under microscope using haemocytometer.
The residual cell suspension was resuspended and slides prepared using cyto centrifuge technique (Cytospin 4, Thermo Shandon). […] Up to 300 cells were counted and differentiated using standard morphometric techniques under light microscopy. All results are presented at individual data for each animal and mean value calculated for each group. […]

[4] = test system: BALF fluid inflammatory cell influx and lung function; experiment: Chronic model of COPD in guinea pigs (tobacco smoke and LPS, 18 weeks); assay type: in vivo; settings: guinea pig, chronic TS/LPS COPD model, 3 mg/ml, aerosol exposure 50 minutes
From the text: Observation: It was observed that compound of present invention was found effective in inhibition of neutrophil influx, an index of pulmonary inflammation in guinea pig model of airway inflammation. […] (II) Efficacy Studies in Chronic Model of COPD in Guinea Pigs.
Guinea pigs were exposed to tobacco smoke (TS) and Lipopolysaccharide (LPS) in an acrylic chamber. Exposure to TS and LPS is given in following manner in a week for a total of 18 weeks.
Lung delivery of test material was achieved by whole body aerosol exposure for 50 minutes in a chamber. Guinea pig were divided in different dose groups and exposed to either vehicle or compound no 43 (3 mg/ml). A total quantity of 7.0 ml of either vehicle or compound no 43 (suspension formulation with D90<5μ, with Malvern Mastersizer®) was nebulized in chambers to respective groups over 50 mins period. Compound no 43 or vehicle was administered 2 hr prior to TS/LPS exposure once daily from week 9 to week 18. Control animals were exposed to room air instead of TS and PBS instead of LPS. Lung function and bronchoalveolar lavage (BAL) for each animal was performed 24 hr post last TS exposure. […]
as §1
The residual cell suspension was resuspended and slides prepared using cyto centrifuge technique (Cytospin 4, Thermo Shandon). […] Up to 300 cells were counted and differentiated using standard morphometric techniques under light microscopy.
All results are presented at individual data for each animal and mean value calculated for each group. Percentage inhibition for the neutrophil was calculated for compound no 43 treatment group against vehicle group. […]

T1 sequence (Q16539 whole entry): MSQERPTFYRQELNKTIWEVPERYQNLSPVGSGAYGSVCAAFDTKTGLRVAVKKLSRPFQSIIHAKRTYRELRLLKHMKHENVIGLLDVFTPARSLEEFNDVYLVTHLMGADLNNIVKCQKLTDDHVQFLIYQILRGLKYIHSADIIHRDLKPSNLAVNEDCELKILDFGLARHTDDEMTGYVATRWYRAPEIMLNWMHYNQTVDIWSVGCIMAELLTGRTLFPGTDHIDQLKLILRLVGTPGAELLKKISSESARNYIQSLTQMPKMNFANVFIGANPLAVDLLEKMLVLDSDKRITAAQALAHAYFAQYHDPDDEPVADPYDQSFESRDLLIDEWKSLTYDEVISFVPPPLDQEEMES

SMILES | inhibition at 1 µM [1] [%] | Neutrophil (*10^3 cells/animal) ([2]; formulation strength 0.3 mg/ml) | Neutrophil (*10^3 cells/animal) ([2]; formulation strength 3 mg/ml) | % Inhibition ([2]; formulation strength 0.3 mg/ml) [%] | % Inhibition ([2]; formulation strength 3 mg/ml) [%] | Effect on inflammatory cell influx Neutrophil (*10^6cells) ([3]; BAL fluid, Mean ± SEM) | Effect on inflammatory cell influx % inhib^n ([3]; neutrophil vs vehicle group) [%] | Neutrophil (*10^6cells) ([4]; BALF, once daily week 9 to 18, Mean ± SEM) | lung function parameters (FRC, RV, IC/TLC ratio, RV/TLC ratio) ([4]; FIGS. 1A, 1B, 2A, 2B) | % inhib^n ([4]; neutrophil vs vehicle group) [%]
Cc1ccc(-n2nc(C(C)(C)C)cc2NC(=O)Nc2ccc(OCCN3CCN(CC4CC4)C(=O)C3)c3c2CCC3)cc1 [Compound 12, 1-[3-tert-butyl-1-(4-methylphenyl)-1H-pyrazol-5-yl]-3-(7-{2-[4-(cyclopropylmethyl)-3-oxopiperazin-1-yl]ethoxy}-2,3-dihydro-1H-inden-4-yl)urea] | 80 to 100 | 107 ± 18.5 *10^3 cells/animal | 69.6 ± 11.1 *10^3 cells/animal | 40 | 61 |  |  |  |  | 
CCS(=O)(=O)Nc1cc(C(C)(C)C)cc(NC(=O)Nc2ccc(OCCN3CCN(CC4CC4)C(=O)C3)c3c2CCC3)c1OC [Compound 43, N-(5-tert-butyl-3-{[(7-{2-[4-(cyclopropylmethyl)-3-oxopiperazin-1-yl]ethoxy}-2,3-dihydro-1H-inden-4-yl)carbamoyl]amino}-2-methoxyphenyl)ethanesulfonamide] | 80 to 100 |  |  |  |  | 0.8 ± 0.20 *10^6cells | 57 | 4.0 ± 0.70 *10^6cells | significantly improves lung function aspects | 32
